Tests used:
STZ-induced DKD rats [1] = assay: Body weight, water intake and food intake of STZ-induced DKD rats; format: in vivo, rat
Procedure: (§1) SD rats (200±10 g) were used as model animals, which were fasted for 12 h before injection. STZ was dissolved in citrate buffer at 1% concentration, and rats were fasted and intraperitoneally injected with 55 mg/kg STZ and placed in the cage, the rats being ensured with adequate water intake for 24 h. STZ injections need to be fast and complete within 10 minutes of injection. The normal control group was injected with an equal volume of pH 4.5 citric acid-sodium citrate buffer. The state of the animals (multiple drinking and polyuria) was observed. After 3 weeks of STZ injection, blood was collected from the tail vein, and fasting blood glucose ≥16.7 mmol/L was measured as the standard for diabetic nephropathy in rats.
(§2) DKD rats were randomly assigned to 6 groups and given with different drugs. After 6 weeks of administration, the experiment was terminated and the protective effect of the drug on DKD rats was observed.
The general condition and body weight changes after rat modeling were observed weekly. The general conditions include the activity, mental state, coat color, diet, water intake and urine volume of the rats. The amount of water and the amount of feed were recorded weekly.

STZ-induced DKD rats [2] = assay: Retinopathy of STZ-induced DKD rats; format: in vivo, rat; settings: DKD rats after treatment, Table 1 (FIG. 5)
Procedure: as §1, §2
During the experiment, the retinopathy of rats was observed during daily administration, and the dates of retinopathy in different groups of rats were recorded.

STZ-induced DKD rats [3] = assay: Blood glucose and urine protein in STZ-induced DKD rats; format: in vivo, rat
Procedure: as §1, §2
During the experiment, the blood glucose of the rats was monitored after the completion of the modeling and after the completion of the administration, and urine protein was collected once at 24 hour.

db/db mice = assay: Serum EPO content of db/db mice; format: in vivo, mouse; design: serum EPO content: unit not given here; settings: for serum EPO content: 6 weeks, db/db group 257.19±67.80 ng/L
Excerpt: db/db mice are congenital obese type 2 DKD mice with spontaneous mutations in the leptin receptor (Leptin receptor, Lepr) due to a point mutation in the leptin receptor gene GT located on chromosome 4. The course of polyphagia, polyuria, diabetes and hyperglycemia is similar to that of humans, and it is currently the most widely used type 2 spontaneous animal model of DKD. The db/db mice have a series of complications with the aggravation of diabetes. The main pathological changes of renal tissue are the expansion of the glomerular mesangial interstitium, the thickening of the glomerular basement membrane, and the excessive accumulation of extracellular matrix. However, the glomerular mesangium of db/db mice changes relatively slowly, and the glomerular mesangium will not be dissolved or nodular glomerulosclerosis, and there is no progressive renal insufficiency.
Six-week-old db/db mice were purchased, and start the administration after adaptive feeding for 1 week (i.e., 7-week-old). TBN is administered twice a day (fixed by starting from 9:00-10:00 am and 3:00-4:00 pm, with an interval of 6 hours), and the positive control drug Losartan was administered once a day (fixed at 9:00-10:00 am) for 6 weeks.
At the end of the experiment, after rats were anesthetized, the blood was taken from the abdominal aorta, allowed to stand for 1 h, centrifuged at 3000 rmp for 10 min and with the supernatant collected, and serum erythropoietin levels were measured according to the kit instructions.

STZ-induced SHR rats [4] = assay: Body weight of STZ-induced SHR rats; format: in vivo, rat; settings: 60 mg/kg twice/day, 6 weeks
Procedure: (§3) 6 W-age SHR rats were abstained from food but not water for 12 h before injection, and then intraperitoneally injected with 55 mg/kg STZ after weighing (STZ required for fast injection, to be completed within 10 min), then put back to the cage to ensure that rat has sufficient drinking water in the period of 24 h, and the rats of normal control group were injected with citric acid buffer (pH 4.5) in the same volume. After 3 weeks of STZ injection, retinal venous blood was collected, and blood glucose ≥16.7 mmol/L was used as a molding standard, where the model of SHR rats that meet the above criteria is considered successful.
(§4) The route of administration is intragastrical, TBN is administered twice a day (fixed at 9:00-10:00 am and 3:00-4:00 pm), and Losartan is administered once a day (fixed at 9:00-10:00 am), continuously for 6 weeks.
The general situation and weight changes are observed after the establishment of the rat model, and the general situation includes the activity of rats, mental state, hair color, diet, drinking water and urine volume, etc., and water consumption and feed weights were recorded each week.

STZ-induced SHR rats [5] = assay: PAS staining, glomerular hardening of STZ-induced SHR rats; format: in vivo, rat; settings: 60 mg/kg
Procedure: as §3, §4
The process is the same as in Example 9.

STZ-induced SHR rats [6] = assay: Serum iron ion content in STZ-induced SHR rats; format: in vivo, rat; settings: TBN group (T60), 60 mg/kg
Procedure: as §3, §4
At the end of the experiment, after rats were anesthetized, blood was taken from the rear abdominal aortic pulse, allowed to stand for 1 h, centrifuged at 3000 rmp centrifuged for 10 min to collect supernatant, and the iron ion content was measured by using an automated biochemical device and the level of red cells in serum was detected by using kits.

[7] = test system: cisplatin-induced C57BL/6J mice; assay: Hepcidin level in cisplatin-induced renal anemia C57BL/6J mice; format: in vivo, mouse; settings: 60 mg/kg twice/day, 4 weeks, P<0.05
Procedure: Modeling method: the animals were randomly divided into 5 groups, i.e., normal control group, model group, three treatment groups, wherein the normal control group was injected with equal volume of normal saline, the model group and three treatment groups were intraperitoneally injected with cisplatin (CDDP) 5 mg/kg once a week, for 4 weeks.
The route of administration is intragastrical. TBN is administered twice a day (fixed at 9:00-10:00 am and 3:00-4:00 pm), and Roxadustat is administered once every two days (fixed at 9:00-10:00 am), for 4 weeks.
Hepcidin is a cysteine-rich antibacterial polypeptide synthesized and secreted by the liver. It plays a negative regulatory role in the regulation of iron balance in the body and can be used to indirectly evaluate the symptoms of anemia in mice. […] Cisplatin and other chemotherapeutic drugs can cause iron regulation imbalance in mice, and TBN administration can reduce the expression level of iron regulation in the body, and thus can be used to treat cancer complicated renal anemia.

## Cc1nc(C)c(/C=[N+](\[O-])C(C)(C)C)nc1C [TBN]
STZ-induced DKD rats [1]; STZ-induced diabetic nephropathy rats, FIG. 1a
  body weight: no effect
STZ-induced DKD rats [1]; vs model group, FIG. 1b
  water intake: significantly lower
STZ-induced DKD rats [1]; vs model group, FIG. 1c
  food intake: significantly lower
STZ-induced DKD rats [2]
  number of retinopathy: reduced
  time when retinopathy occurred: relatively delayed
STZ-induced DKD rats [3]; 24 hour urine, DKD rats
  urinary protein content in urine: significantly reduced
STZ-induced DKD rats [3]; after 6 weeks of treatment
  blood glucose: significantly decreased
db/db mice; 10 mg/kg
  serum EPO content: 265.04±79.32
db/db mice; 30 mg/kg
  serum EPO content: 288.80±36.78
db/db mice; each dose group of TBN
  increase in serum EPO content compared with positive control drug: stronger than that of the positive control drug
db/db mice; spontaneous db/db mice, TBN administration
  serum EPO level: tendency to increase
STZ-induced SHR rats [4]
  body weight vs SHR-STZ group: increased significantly
STZ-induced SHR rats [5]
  degree of glomerular hardening (PAS) vs SHR-STZ group: significantly lower
STZ-induced SHR rats [6]
  content of iron ions in serum vs model group: significantly increased
[7]
  level of iron regulation (hepcidin) vs model group: significantly reduced
